Source: patent US8901145B2, “Aminopyrimidine kinase inhibitors” (Jasco Pharmaceuticals, LLC, priority 2011, dated 2014)

Legend:
CK1γ2(h) = CK1γ2(h) (Homo sapiens, UniProt P78368); experiment: Enzyme activity, ATP = Km, CK1γ2(h); assay type: biochemical; conditions: 300 nM of compound, ATP concentration = Km
NCI-H929 = experiment: Cell proliferation inhibition (MTS), NCI-H929; assay type: cell-based, human; conditions: NCI-H929, 72 hours
Method: (§1) All cells were cultured in media supplemented with 10% FBS except for which are marked specially, in the temperature of 37° C., 5% CO2 and 95% humidity. All culture media were purchased from GIBCO (USA, IMDM Cat. 12200-036; RPMI Medium 1640 Cat. 31800-022; 2-mercaptoethanol Cat. 21985-023).
(§2) • 1. The cells were harvested respectively during the logarithmic growth period and counted with hemocytometer. The cell viability was over 98% by trypan blue exclusion. • 2. Cell concentrations were adjusted to 2.22×10^5 or 1.11×10^5 or 5.56×10^4 cells/mL with respective medium. • 3. 90 μL cell suspensions were added to 96-well plates (triplicates for each cell concentration), the final cell densities were 2×10^4 or 1×10^4 or 5×10^3 cells/well. The density of 5×10^3 cells/well was used for the first test. The appropriate cell density was determined and adjusted according to the results of the first test. • 4. The next day, test article or positive drugs were dissolved with DMSO as stock solution at the concentration of 20 mM. • 5. 10 μL drug solution was dispensed in each well (triplicate for each drug concentration). • 6. Plates were cultured for another 72 hours, then measured by means of MTS assay. • 7. MTS/PMS solution was prepared immediately prior to use. […] Absorbance at 490 nm was recorded using SpectraMAX Plus microplate spectrophotometer. […]

KU812 = experiment: Cell proliferation inhibition (MTS), KU812; assay type: cell-based, human; conditions: KU812, 72 h
Method: (§3) All cells were cultured in the media supplemented with 10% FBS in the temperature of 37° C., 5% CO2 and 95% humidity. All culture media were purchased from GIBCO.
(§4) • 1. Cells were harvested respectively during the logarithmic growth period and counted with hemocytometer. Cell viability was over 98% by trypan blue exclusion. • 2. Dilute cells with respective medium to achieve 1.11×10^5 cells/mL for LNCaP cells, 2.22×10^5 cells/mL for KU812 cells, 5.56×10^4 cells/mL for Panc-1 cells. • 3. Add 90 μL cell suspensions to 96-well plate, the final cell densities are 1×10^4 cells/well for LNCaP cells, 2×10^4 cells/well for KU812 cells, and […] cells/well for Panc-1 cells, respectively. • 4. The next day, dilute the test article or positive drugs with DMSO or PBS. • 5. Dispense 10 μL drug solution in each well (triplicate for each drug concentration). • 6. The plates were cultured for another 72 hours, then measured using MTS assay. • 7. Prepare MTS/PMS solution immediately prior to use, pipet 20 μL of the mixture into each well of the 96 well assay plate containing 100 μL culture medium. (The final reaction volume is 120 μL). • 8. Incubate the plate for 1-4 hours at 37° C. in a humidified, 5% CO2 atmosphere. • 9. Record the absorbance at 490 nm using Synergy2 Microplate Reader. Data Analysis:
(§5) The software of GraphPad Prism version 5 was used to calculate IC50. […]

Pim-1(h) = Pim-1(h) (Homo sapiens, UniProt P11309); experiment: Enzyme activity, ATP = Km, Pim-1(h); assay type: biochemical; conditions: 300 nM of compound, ATP concentration = Km
Chain of Pim-1(h) (P11309 whole entry): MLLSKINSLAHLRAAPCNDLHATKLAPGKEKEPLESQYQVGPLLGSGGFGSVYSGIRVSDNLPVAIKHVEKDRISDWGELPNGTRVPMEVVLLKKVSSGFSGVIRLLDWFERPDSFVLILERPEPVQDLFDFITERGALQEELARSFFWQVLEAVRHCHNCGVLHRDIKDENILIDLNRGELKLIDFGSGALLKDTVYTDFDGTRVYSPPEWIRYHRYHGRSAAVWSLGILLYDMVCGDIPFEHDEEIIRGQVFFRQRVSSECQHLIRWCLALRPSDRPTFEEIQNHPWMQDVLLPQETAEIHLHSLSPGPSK

CK2(h) = CK2(h) (Homo sapiens, UniProt P68400); experiment: Enzyme activity, ATP = Km, CK2(h); assay type: biochemical; conditions: 300 nM of compound, ATP concentration = Km
Chain of CK2(h) (P68400 whole entry): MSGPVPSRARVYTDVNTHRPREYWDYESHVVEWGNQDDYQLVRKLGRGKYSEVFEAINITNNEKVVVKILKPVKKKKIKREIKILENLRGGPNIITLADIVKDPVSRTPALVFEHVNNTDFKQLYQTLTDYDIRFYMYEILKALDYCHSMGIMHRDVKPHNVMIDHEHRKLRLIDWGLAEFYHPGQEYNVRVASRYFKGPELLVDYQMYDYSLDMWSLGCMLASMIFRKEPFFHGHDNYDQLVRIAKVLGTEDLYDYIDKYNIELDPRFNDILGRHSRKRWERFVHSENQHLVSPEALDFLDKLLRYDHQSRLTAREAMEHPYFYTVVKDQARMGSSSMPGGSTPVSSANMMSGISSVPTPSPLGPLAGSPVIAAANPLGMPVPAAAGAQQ
Chain of CK2(h) (P67870 whole entry partner): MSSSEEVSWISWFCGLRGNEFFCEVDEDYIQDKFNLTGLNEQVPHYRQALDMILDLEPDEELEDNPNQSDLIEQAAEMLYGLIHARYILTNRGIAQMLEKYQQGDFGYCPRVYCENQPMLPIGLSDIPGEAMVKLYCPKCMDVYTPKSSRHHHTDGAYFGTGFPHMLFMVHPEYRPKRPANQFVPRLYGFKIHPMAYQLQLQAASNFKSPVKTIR

CK1(y) = experiment: Enzyme activity, ATP = Km, CK1(y); assay type: biochemical, yeast; conditions: 300 nM of compound, ATP concentration = Km
Pim-3(h) = Pim-3(h) (Homo sapiens, UniProt Q86V86); experiment: Enzyme activity, ATP = Km, Pim-3(h); assay type: biochemical; conditions: 300 nM of compound, ATP concentration = Km
Panc-1 = experiment: Cell proliferation inhibition (MTS), Panc-1; assay type: cell-based, human; conditions: Panc-1, 72 h
Method: as §3, §4, §5

RPMI-8226 = experiment: Cell proliferation inhibition (MTS), RPMI-8226; assay type: cell-based, human; conditions: RPMI 8226, 72 hours
Method: as §1, §2

Pim-2(h) = Pim-2(h) (Homo sapiens, UniProt Q9P1W9); experiment: Enzyme activity, ATP = Km, Pim-2(h); assay type: biochemical; conditions: 300 nM of compound, ATP concentration = Km
Chain of Pim-2(h) (Q9P1W9 whole entry): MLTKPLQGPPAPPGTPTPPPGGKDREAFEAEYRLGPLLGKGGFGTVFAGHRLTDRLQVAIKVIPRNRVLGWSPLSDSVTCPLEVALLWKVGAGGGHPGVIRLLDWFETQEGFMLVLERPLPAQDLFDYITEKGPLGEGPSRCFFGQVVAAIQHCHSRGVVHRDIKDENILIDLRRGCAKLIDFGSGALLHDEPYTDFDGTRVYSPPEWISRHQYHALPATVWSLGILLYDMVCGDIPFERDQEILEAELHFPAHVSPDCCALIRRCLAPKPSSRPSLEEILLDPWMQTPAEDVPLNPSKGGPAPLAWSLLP

Chain of CK1γ2(h) (P78368 whole entry): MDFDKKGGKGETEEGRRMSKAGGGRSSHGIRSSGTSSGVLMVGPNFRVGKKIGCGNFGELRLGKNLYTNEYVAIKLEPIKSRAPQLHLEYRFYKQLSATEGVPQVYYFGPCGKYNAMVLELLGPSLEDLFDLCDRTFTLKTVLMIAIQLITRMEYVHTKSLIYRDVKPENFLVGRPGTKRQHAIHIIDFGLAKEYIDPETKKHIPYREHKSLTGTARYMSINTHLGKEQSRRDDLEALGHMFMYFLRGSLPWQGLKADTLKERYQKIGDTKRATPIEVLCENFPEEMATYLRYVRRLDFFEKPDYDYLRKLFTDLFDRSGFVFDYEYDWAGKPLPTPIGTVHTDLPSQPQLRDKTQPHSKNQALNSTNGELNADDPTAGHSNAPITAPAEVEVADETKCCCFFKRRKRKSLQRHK

Percent Activity of Enzyme CK1γ2(h) (CK1γ2(h)): 95%
IC50 (NCI-H929): > 30 µM
Percent Activity of Enzyme Pim-1(h) (Pim-1(h)): 115%
Percent Activity of Enzyme CK2(h) (CK2(h)): 85%
Percent Activity of Enzyme CK1(y) (CK1(y)): 114%
Percent Activity of Enzyme Pim-3(h) (Pim-3(h)): 80%
IC50 (Panc-1): > 30 µM
IC50 (RPMI-8226): > 30 µM
Percent Activity of Enzyme Pim-2(h) (Pim-2(h)): 108%
SMILES: NCC1CCN(c2cc(/C=C3\SC(=O)NC3=O)ncn2)CC1 [Compound 11268]
IC50 (KU812): > 30 µM
